Assay results: PubChem BioAssay (NCI)
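Five compound concentrations were applied to cells in 96-well plates for 48 hours; endpoints were derived by simple linear interpolation of the resulting dose-response curve. Abbreviation: GI50, concentration required for 50% inhibition of growth. TGI denotes the concentration required for complete inhibition of growth.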

How the values were obtained:
Assay in all cases: NCI-60 cell line screen, 48 h
OVCAR-5 ovarian = test system: OVCAR-5 ovarian
OVCAR-4 ovarian = test system: OVCAR-4 ovarian
MDA-MB-468 breast = test system: MDA-MB-468 breast
NCI/ADR-RES ovarian = test system: NCI/ADR-RES ovarian
OVCAR-3 ovarian = test system: OVCAR-3 ovarian
U251 CNS = test system: U251 CNS
NCI-H460 lung = test system: NCI-H460 lung
SF-268 CNS = test system: SF-268 CNS
RXF 393 renal = test system: RXF 393 renal
SK-OV-3 ovarian = test system: SK-OV-3 ovarian
LOX IMVI melanoma = test system: LOX IMVI melanoma
ACHN renal = test system: ACHN renal
MALME-3M melanoma = test system: MALME-3M melanoma
PC-3 prostate = test system: PC-3 prostate
UACC-62 melanoma = test system: UACC-62 melanoma
T-47D breast = test system: T-47D breast
KM12 colon = test system: KM12 colon
A549 NSCLC = test system: A549 NSCLC
UO-31 renal = test system: UO-31 renal
A498 renal = test system: A498 renal
HOP-92 NSCLC = test system: HOP-92 NSCLC
HCC-2998 colon = test system: HCC-2998 colon
CCRF-CEM leukemia = test system: CCRF-CEM leukemia
SW-620 colon = test system: SW-620 colon
SK-MEL-28 melanoma = test system: SK-MEL-28 melanoma
BT-549 breast = test system: BT-549 breast
SR leukemia = test system: SR leukemia
HCT-116 colon = test system: HCT-116 colon
MDA-MB-231 breast = test system: MDA-MB-231 breast
OVCAR-8 ovarian = test system: OVCAR-8 ovarian
UACC-257 melanoma = test system: UACC-257 melanoma
K-562 leukemia = test system: K-562 leukemia
786-0 renal = test system: 786-0 renal
IGROV1 ovarian = test system: IGROV1 ovarian
HOP-62 NSCLC = test system: HOP-62 NSCLC
DU-145 prostate = test system: DU-145 prostate
NCI-H23 lung = test system: NCI-H23 lung
EKVX NSCLC = test system: EKVX NSCLC
TK-10 renal = test system: TK-10 renal
COLO 205 colon = test system: COLO 205 colon
HT29 colon = test system: HT29 colon
MDA-MB-435 = test system: MDA-MB-435
CAKI-1 renal = test system: CAKI-1 renal
SK-MEL-5 melanoma = test system: SK-MEL-5 melanoma
SF-295 CNS = test system: SF-295 CNS
HS 578T breast = test system: HS 578T breast
HCT-15 colon = test system: HCT-15 colon
SNB-75 CNS = test system: SNB-75 CNS
MOLT-4 leukemia = test system: MOLT-4 leukemia
NCI-H522 lung = test system: NCI-H522 lung
SNB-19 CNS = test system: SNB-19 CNS
NCI-H226 lung = test system: NCI-H226 lung
SF-539 CNS = test system: SF-539 CNS
SK-MEL-2 melanoma = test system: SK-MEL-2 melanoma
RPMI-8226 leukemia = test system: RPMI-8226 leukemia
SN12C renal = test system: SN12C renal
HL-60(TB) leukemia = test system: HL-60(TB) leukemia
MCF7 breast = test system: MCF7 breast
M14 melanoma = test system: M14 melanoma

## O=C(N/N=C/c1ccoc1)c1[nH]c2ccc(Br)cc2c1-c1ccccc1
OVCAR-5 ovarian
  GI50: 0.745 µM
  TGI: 14.6 µM
OVCAR-4 ovarian
  GI50: 5.23 µM
  TGI: 20.9 µM
MDA-MB-468 breast
  GI50: 0.346 µM
  TGI: 3.88 µM
NCI/ADR-RES ovarian
  GI50: 0.231 µM
  TGI: 1.31 µM
OVCAR-3 ovarian
  GI50: 0.257 µM
  TGI: 11.5 µM
U251 CNS
  GI50: 1.16 µM
  TGI: 15.6 µM
NCI-H460 lung
  GI50: 0.252 µM
  TGI: 10.7 µM
SF-268 CNS
  GI50: 1.2 µM
  TGI: 14.5 µM
RXF 393 renal
  GI50: 0.455 µM
  TGI: 19.8 µM
SK-OV-3 ovarian
  GI50: 3.54 µM
  TGI: 18.4 µM
LOX IMVI melanoma
  GI50: 0.265 µM
  TGI: 13.7 µM
ACHN renal
  GI50: 0.79 µM
  TGI: 14.4 µM
MALME-3M melanoma
  GI50: 5.25 µM
  TGI: 21.4 µM
PC-3 prostate
  GI50: 0.436 µM
  TGI: 16 µM
UACC-62 melanoma
  GI50: 0.355 µM
  TGI: 15.8 µM
T-47D breast
  GI50: 3.77 µM
  TGI: 32.5 µM
KM12 colon
  GI50: 0.461 µM
  TGI: 13.5 µM
A549 NSCLC
  GI50: 1.13 µM
  TGI: 14.7 µM
UO-31 renal
  GI50: 1.01 µM
  TGI: 15.2 µM
A498 renal
  GI50: 15.6 µM
  TGI: 30.2 µM
HOP-92 NSCLC
  GI50: 0.989 µM
  TGI: 13.3 µM
HCC-2998 colon
  GI50: 0.755 µM
  TGI: 11.6 µM
CCRF-CEM leukemia
  GI50: 0.227 µM
  TGI: 15.3 µM
SW-620 colon
  GI50: 0.297 µM
  TGI: 15.6 µM
SK-MEL-28 melanoma
  GI50: 2.75 µM
  TGI: 19.9 µM
BT-549 breast
  GI50: 0.416 µM
  TGI: 3.12 µM
SR leukemia
  GI50: 0.492 µM
  TGI: 36.9 µM
HCT-116 colon
  GI50: 0.166 µM
  TGI: 11.1 µM
MDA-MB-231 breast
  GI50: 0.906 µM
  TGI: 12.3 µM
OVCAR-8 ovarian
  GI50: 0.369 µM
  TGI: 5.93 µM
UACC-257 melanoma
  GI50: 7.66 µM
  TGI: 23.3 µM
K-562 leukemia
  GI50: 0.197 µM
  TGI: > 56.2 µM
786-0 renal
  GI50: 0.665 µM
  TGI: 14.4 µM
IGROV1 ovarian
  GI50: 1.25 µM
  TGI: 13 µM
HOP-62 NSCLC
  GI50: 0.524 µM
  TGI: 17.6 µM
DU-145 prostate
  GI50: 0.568 µM
  TGI: 12.4 µM
NCI-H23 lung
  GI50: 0.728 µM
  TGI: 14.2 µM
EKVX NSCLC
  GI50: 1.03 µM
  TGI: 13.6 µM
TK-10 renal
  GI50: 7.96 µM
  TGI: 24 µM
COLO 205 colon
  GI50: 0.43 µM
  TGI: 3.14 µM
HT29 colon
  GI50: 0.329 µM
  TGI: 2.92 µM
MDA-MB-435
  GI50: 0.162 µM
  TGI: 0.827 µM
CAKI-1 renal
  GI50: 0.537 µM
  TGI: 15.4 µM
SK-MEL-5 melanoma
  GI50: 0.295 µM
  TGI: 1.67 µM
SF-295 CNS
  GI50: 0.289 µM
  TGI: 13 µM
HS 578T breast
  GI50: 0.279 µM
  TGI: 13 µM
HCT-15 colon
  GI50: 0.328 µM
  TGI: 11.9 µM
SNB-75 CNS
  GI50: 0.299 µM
  TGI: 13.2 µM
MOLT-4 leukemia
  GI50: 0.405 µM
  TGI: 21 µM
NCI-H522 lung
  GI50: 0.208 µM
  TGI: 1 µM
SNB-19 CNS
  GI50: 3.15 µM
  TGI: 20 µM
NCI-H226 lung
  GI50: 3.04 µM
  TGI: 16.2 µM
SF-539 CNS
  GI50: 0.246 µM
  TGI: 1.08 µM
SK-MEL-2 melanoma
  GI50: 0.954 µM
  TGI: 16.4 µM
RPMI-8226 leukemia
  GI50: 0.36 µM
  TGI: 33.2 µM
SN12C renal
  GI50: 0.485 µM
  TGI: 12.1 µM
HL-60(TB) leukemia
  GI50: 0.205 µM
  TGI: 0.852 µM
MCF7 breast
  GI50: 0.21 µM
  TGI: 12.7 µM
M14 melanoma
  GI50: 0.226 µM
  TGI: 14.7 µM
